Laboratory results taken from US10689362B2, “Quinoxaline compounds as type III receptor tyrosine kinase inhibitors” (Development Center for Biotechnology, priority 2016, dated 2020).

How the values were obtained:
c-KIT kinase = c-KIT kinase (Homo sapiens (Human), UniProt P10721); experiment: c-KIT kinase assay (radiometric); type: biochemical
Protocol: (§1) Inhibition of c-KIT kinase activity by a test compound disclosed herein was estimated by radiometric assay. Standard assay conditions were 20 ng of recombinant c-Kit (SignalChem) with 2 μg of substrate Poly-(Glu 4:Tyr 1) (sigma) in the assay buffer in kinase reaction buffer (10 mM MOPS pH 7.0, 0.21 mM EDTA, 0.5% glycerol, 0.001% Brij-35, 0.01 2-mercaptoehtanol, 1 mg/ml BSA, 10 mM MgCl2, 10 mM MnCl2, 10 μM ATP, 0.1 μCi per well [^33P]-ATP, in the presence of test compound (diluted in final concentration of 4% DMSO) or DMSO control, with a final volume of 25 μl for 60 minutes at 30° C. The reaction was stopped by adding 5 μl of 3% phosphoric acid solution. Total reaction solution was then harvested onto a filter plate (UniFilter-96 GF/B, PerkinElmer), and washed 20 times for 5 min with dH2O. 30 μl of MicroScint™-20 Cocktail (PerkinElmer) was added to dried plate. The plate was sealed and counted using a TopCount scintillation detector (PerkinElmer). […] The IC50 values of quinoxaline compounds of this invention against c-KIT kinase were determined using the GraphPad Prism 5 software.
(§2) The IC50 values for selected quinoxaline compounds of this invention against CSF-1R, c-KIT, FLT3, and PDGFRβ are summarized in Table 3.

[1] = test system: CSF-1-dependent M-NFS-60 mouse myeloid leukemia cell; experiment: M-NFS-60 cell proliferation assay (CellTiter-96); type: cell-based; details: Cytotoxicity, M-NFS-60 cells, 72 hours
Protocol: (§3) Inhibition of cell growth by compounds was measured using CellTiter™-96 assay. The cytotoxicity of compounds was evaluated in CSF-1-dependent M-NFS-60 mouse myeloid leukemia cell, FLT3 signal addicted MV4-11 human acute myeloid leukemia cell with FLT3-ITD mutation, c-KIT signal addicted Kasumi-1 human acute myeloid leukemia cell with c-KIT N822K activating mutation, and THP-1 human acute monocytic leukemia cell harboring NRAS G12D mutation.
The compounds disclosed herein were tested in M-NFS-60 cell proliferation assay to determine their cellular potency against CSF-1R. […] Inhibition of CSF-1R kinase activity will cause reduced growth and/or cell death. […] Cells were allowed to expand until reaching saturation at which point they were subcultured or harvested for assay use.
(§4) M-NFS-60, Kasumi-1, MV4-11 and THP-1 cells were seeded into 96-well plates at 2000, 64000, 6500, and 5000 cells/well, respectively, and incubated at 37° C., 5% CO2 overnight. Then, these seeded cells were treated with increasing concentrations of the test compounds and incubated for another 72 hours. At the end of the incubation, CellTiter96® AQueous One Solution Reagent (Promega) was added and incubated for 4 hours. Cell viability was determined by measuring absorbance at 490 nm using EMax® microplate reader (Molecular Devices).

FLT3 kinase = FLT3 kinase (Homo sapiens (Human), UniProt P36888); experiment: FLT3 kinase assay (radiometric); type: biochemical
Protocol: as §1, with “of FLT3” for “of c-KIT”, “were 5” for “were 20”, “recombinant FLT3 (Thermo Fisher)” for “recombinant c-Kit (SignalChem)”, “BSA, MgCl2” for “BSA,”, “10 mM,” for “10 mM MgCl2, 10 mM MnCl2,”, “against FLT3” for “against c-KIT”
as §2

[2] = test system: THP-1 human acute monocytic leukemia cell harboring NRAS G12D mutation; experiment: THP-1 cell proliferation assay (counter screen, CellTiter-96); type: cell-based; details: Cytotoxicity, THP-1 cells (counter screen), 72 hours
Protocol: as §3
THP-1 human acute monocytic leukemia cells harbor NRAS G12D mutation, which renders cell proliferate independently of class III RTKs signal. […] Cells were allowed to expand until reaching saturation at which point they were subcultured or harvested for assay use.
as §4

CSF-1R kinase = CSF-1R kinase (Homo sapiens (Human), UniProt P07333); experiment: CSF-1R kinase assay (AlphaScreen); type: biochemical
Protocol: Inhibition of CSF-1R kinase activity by a test compound disclosed herein was estimated by AlphaScreen (PerkinElmer). […] Reactions were incubated at 30° C. for 45 min and stopped by adding 5 μL of 50 mM EDTA. Analysis of resulting product using an AlphaScreen kit, and counted with Enspire Alpha (PerkinElmer). […] The IC50 values of quinoxaline compounds of this invention against CSF-1R kinase were determined using the GraphPad Prism 5 software.

[3] = test system: Kasumi-1 human acute myeloid leukemia cell with c-KIT N822K activating mutation; experiment: Kasumi-1 cell proliferation assay (CellTiter-96); type: cell-based; details: Cytotoxicity, Kasumi-1 cells, 72 hours
Protocol: as §3
(§5) The compounds disclosed herein were tested in Kasumi cell proliferation assay to determine their cellular potency against c-KIT kinase. Kasumi human acute myeloid leukemia cells harbor ligand-independent N822K c-KIT activating mutation, thus the cell proliferation relied on c-KIT signal. Inhibition of c-KIT kinase activity will cause reduced growth and/or cell death. […] Cells were allowed to expand until reaching saturation at which point they were subcultured or harvested for assay use.
as §4

PDGFRβ kinase = PDGFRβ kinase (Homo sapiens (Human), UniProt P09619); experiment: PDGFRβ kinase assay (radiometric); type: biochemical; details: bound
Protocol: as §1, with “of PDGFRβ” for “of c-KIT”, “were 10” for “were 20”, “recombinant PDGFRβ” for “recombinant c-Kit”, “well [^33P]-ATP),” for “well [^33P]-ATP,”, “against PDGFRβ” for “against c-KIT”
as §2

[4] = test system: MV4-11 human acute myeloid leukemia cell with FLT3-ITD mutation; experiment: MV4-11 cell proliferation assay (CellTiter-96); type: cell-based; details: Cytotoxicity, MV4-11 cells, 72 hours
Protocol: as §3
as §5, with “MV4-11” for “Kasumi”, “FLT3” for “c-KIT”, “FLT3-ITD” for “N822K c-KIT”, “which render its” for “thus the cell”, “FLT3-ITD dependent.” for “relied on c-KIT signal.”
as §4

FLT3 kinase, sequence (P36888 27-993): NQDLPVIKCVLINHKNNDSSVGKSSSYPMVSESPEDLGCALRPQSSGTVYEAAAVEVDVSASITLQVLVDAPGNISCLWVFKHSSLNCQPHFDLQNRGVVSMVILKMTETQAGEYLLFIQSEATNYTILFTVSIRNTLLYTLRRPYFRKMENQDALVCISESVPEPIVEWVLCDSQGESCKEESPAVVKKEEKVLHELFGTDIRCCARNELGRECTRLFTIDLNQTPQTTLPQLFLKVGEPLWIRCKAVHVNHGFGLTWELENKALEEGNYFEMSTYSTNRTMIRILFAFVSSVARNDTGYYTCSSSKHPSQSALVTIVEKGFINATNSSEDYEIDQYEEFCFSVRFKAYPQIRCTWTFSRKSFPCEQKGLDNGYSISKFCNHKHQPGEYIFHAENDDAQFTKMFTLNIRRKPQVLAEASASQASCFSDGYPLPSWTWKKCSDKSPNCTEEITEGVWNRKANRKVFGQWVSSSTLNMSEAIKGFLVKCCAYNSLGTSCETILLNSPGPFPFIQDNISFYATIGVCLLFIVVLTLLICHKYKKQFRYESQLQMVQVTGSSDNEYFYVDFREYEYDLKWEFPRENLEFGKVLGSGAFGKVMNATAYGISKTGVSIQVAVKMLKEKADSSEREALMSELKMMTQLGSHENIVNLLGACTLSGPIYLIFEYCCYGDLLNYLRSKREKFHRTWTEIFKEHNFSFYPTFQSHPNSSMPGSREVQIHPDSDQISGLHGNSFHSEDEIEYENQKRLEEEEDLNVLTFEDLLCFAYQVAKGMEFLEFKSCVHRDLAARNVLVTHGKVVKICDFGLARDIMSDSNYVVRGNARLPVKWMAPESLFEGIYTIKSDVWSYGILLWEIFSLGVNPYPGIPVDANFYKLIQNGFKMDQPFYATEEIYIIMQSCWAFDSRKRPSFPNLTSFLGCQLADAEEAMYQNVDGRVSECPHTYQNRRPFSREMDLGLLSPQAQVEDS
CSF-1R kinase, sequence (P07333 20-972): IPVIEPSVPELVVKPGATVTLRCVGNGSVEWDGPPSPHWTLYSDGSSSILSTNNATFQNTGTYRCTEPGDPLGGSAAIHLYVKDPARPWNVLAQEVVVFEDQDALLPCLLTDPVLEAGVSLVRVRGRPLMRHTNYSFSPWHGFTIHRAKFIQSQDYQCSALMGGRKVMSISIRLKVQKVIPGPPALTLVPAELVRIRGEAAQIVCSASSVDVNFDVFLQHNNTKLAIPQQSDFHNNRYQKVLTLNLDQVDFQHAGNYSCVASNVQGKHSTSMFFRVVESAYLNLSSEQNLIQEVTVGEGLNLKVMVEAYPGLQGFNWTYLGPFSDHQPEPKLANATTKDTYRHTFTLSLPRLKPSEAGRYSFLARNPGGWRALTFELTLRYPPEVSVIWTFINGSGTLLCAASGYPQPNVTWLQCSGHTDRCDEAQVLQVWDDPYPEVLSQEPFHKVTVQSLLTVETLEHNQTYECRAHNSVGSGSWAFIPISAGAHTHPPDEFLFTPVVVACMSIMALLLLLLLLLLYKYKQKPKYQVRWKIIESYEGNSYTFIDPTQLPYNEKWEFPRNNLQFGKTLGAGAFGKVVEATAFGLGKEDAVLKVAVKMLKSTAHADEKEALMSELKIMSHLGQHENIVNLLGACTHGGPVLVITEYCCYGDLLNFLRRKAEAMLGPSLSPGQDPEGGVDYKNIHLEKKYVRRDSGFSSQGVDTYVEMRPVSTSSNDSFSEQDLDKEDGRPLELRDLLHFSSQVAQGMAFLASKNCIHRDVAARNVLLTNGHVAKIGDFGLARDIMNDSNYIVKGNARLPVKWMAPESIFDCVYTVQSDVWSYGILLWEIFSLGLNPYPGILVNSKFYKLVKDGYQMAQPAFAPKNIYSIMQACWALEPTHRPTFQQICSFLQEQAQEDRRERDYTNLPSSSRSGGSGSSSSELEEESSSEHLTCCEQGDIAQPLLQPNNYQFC
PDGFRβ kinase, sequence (P09619 33-1106): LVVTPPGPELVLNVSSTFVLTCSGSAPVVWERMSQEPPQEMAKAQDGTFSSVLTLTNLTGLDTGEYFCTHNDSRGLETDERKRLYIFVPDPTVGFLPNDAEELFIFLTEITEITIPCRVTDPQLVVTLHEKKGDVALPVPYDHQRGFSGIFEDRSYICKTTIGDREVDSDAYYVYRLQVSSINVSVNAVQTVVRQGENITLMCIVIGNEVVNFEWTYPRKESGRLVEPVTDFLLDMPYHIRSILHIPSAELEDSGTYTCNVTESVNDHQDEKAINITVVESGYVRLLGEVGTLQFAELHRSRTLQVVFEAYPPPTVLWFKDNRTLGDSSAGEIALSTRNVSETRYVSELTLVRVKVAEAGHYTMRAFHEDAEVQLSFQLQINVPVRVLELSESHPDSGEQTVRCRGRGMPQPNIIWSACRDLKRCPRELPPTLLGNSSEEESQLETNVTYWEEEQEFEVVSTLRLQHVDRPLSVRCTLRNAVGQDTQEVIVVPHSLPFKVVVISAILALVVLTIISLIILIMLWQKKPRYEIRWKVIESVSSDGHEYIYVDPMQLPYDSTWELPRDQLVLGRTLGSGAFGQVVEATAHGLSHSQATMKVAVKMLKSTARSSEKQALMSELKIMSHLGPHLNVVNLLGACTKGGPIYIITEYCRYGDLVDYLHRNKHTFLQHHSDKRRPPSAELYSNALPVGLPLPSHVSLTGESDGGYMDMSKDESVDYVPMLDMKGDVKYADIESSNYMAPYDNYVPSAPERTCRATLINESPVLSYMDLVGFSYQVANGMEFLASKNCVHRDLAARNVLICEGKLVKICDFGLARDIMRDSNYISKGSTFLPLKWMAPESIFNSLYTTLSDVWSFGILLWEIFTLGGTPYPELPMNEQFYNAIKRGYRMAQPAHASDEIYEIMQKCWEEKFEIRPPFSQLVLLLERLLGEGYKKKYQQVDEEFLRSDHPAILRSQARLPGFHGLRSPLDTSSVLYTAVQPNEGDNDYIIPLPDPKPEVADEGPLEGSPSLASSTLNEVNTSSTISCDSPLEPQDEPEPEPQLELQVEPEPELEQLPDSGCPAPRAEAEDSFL
c-KIT kinase, sequence (P10721 26-976): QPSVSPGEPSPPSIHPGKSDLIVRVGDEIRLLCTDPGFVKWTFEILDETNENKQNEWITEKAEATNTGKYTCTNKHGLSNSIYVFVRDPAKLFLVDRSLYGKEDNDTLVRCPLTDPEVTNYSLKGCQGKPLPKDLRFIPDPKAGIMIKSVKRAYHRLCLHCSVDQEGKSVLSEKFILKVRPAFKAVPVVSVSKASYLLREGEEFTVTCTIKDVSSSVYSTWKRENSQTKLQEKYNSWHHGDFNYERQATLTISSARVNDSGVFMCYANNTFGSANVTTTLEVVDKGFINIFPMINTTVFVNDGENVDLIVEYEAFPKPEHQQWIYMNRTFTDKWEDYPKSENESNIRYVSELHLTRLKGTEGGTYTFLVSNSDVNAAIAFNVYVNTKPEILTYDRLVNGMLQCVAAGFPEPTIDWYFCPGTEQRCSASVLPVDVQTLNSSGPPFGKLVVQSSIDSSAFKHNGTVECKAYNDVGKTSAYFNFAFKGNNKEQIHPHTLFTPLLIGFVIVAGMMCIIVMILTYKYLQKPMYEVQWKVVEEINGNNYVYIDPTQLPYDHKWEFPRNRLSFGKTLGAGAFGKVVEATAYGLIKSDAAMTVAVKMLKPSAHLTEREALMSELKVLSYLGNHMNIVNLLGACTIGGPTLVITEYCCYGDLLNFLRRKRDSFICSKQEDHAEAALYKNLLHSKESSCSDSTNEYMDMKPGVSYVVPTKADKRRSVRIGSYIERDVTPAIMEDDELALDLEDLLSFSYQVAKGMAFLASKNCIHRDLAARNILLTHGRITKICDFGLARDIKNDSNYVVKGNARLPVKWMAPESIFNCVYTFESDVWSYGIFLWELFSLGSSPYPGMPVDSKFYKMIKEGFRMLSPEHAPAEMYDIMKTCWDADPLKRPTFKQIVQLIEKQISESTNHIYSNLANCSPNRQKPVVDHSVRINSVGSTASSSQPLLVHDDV

| Structure (SMILES) | IC50 (c-KIT kinase; class symbol) [nM] | IC50 [1] [nM] | IC50 (FLT3 kinase; bound) [nM] | IC50 [2] [nM] | IC50 (CSF-1R kinase; bound) [nM] | IC50 [3] [nM] | IC50 (PDGFRβ kinase) [nM] | IC50 [4] [nM] | IC50 (c-KIT kinase; bound) [nM] | IC50 (CSF-1R kinase; class symbol) [nM] | IC50 (FLT3 kinase; class symbol) [nM] |
| --- | --- | --- | --- | --- | --- | --- | --- | --- | --- | --- | --- |
| COc1cc(Nc2ccc3ncc(N4CCOCC4)nc3c2C#N)ccc1OCc1nccn1C [Example 48, 6-((3-methoxy-4-((1-methyl-1H-imidazol-2-yl)methoxy)phenyl)amino)-3-morpholinoquinoxaline-5-carbonitrile] | 300 to 1000 | > 10000 | > 1000 | > 10000 | > 1000 | 1000 to 10000 | > 1000 | > 10000 |  |  |  |
| COc1cc(Nc2ccc3ncc(N4CCOCC4)nc3c2C#N)ccc1OCc1ccccn1 [Example 57, 6-((3-methoxy-4-(pyridin-2-ylmethoxy)phenyl)amino)-3-morpholinoquinoxaline-5-carbonitrile] | 300 to 1000 |  | > 1000 |  | > 1000 |  | > 1000 |  |  |  |  |
| COc1cc(Nc2ccc3ncc(N4CCOCC4)nc3c2C#N)ccc1OCc1cncn1C [Example 55, 6-((3-methoxy-4-((1-methyl-1H-imidazol-5-yl)methoxy)phenyl)amino)-3-morpholinoquinoxaline-5-carbonitrile] | 300 to 1000 |  | > 1000 |  | > 1000 |  | > 1000 |  |  |  |  |
| COc1ccc(COc2ccc(Nc3ccc4ncc(N5CCOCC5)nc4c3C#N)cc2Cl)cc1 [Example 63, 6-((3-chloro-4-((4-methoxybenzyl)oxy)phenyl)amino)-3-morpholinoquinoxaline-5-carbonitrile] |  | 1000 to 10000 | > 1000 | > 10000 |  | > 10000 | > 1000 | > 10000 | > 1000 | < 100 |  |
| COc1ccc(COc2ccc(Nc3ccc4ncc(OCCN(C)C)nc4c3C#N)cc2OC)cc1 [Example 13, 3-(2-(dimethylamino)ethoxy)-6-((3-methoxy-4-((4-methoxybenzyl)oxy)phenyl)amino)quinoxaline-5-carbonitrile] | 300 to 1000 | 1000 to 10000 | > 1000 | 1000 to 10000 |  | 1000 to 10000 | > 1000 | 1000 to 10000 |  | 100 to 300 |  |
| COc1cc(Nc2ccc3ncc(N4CCOCC4)nc3c2C#N)ccc1OCc1cc(C)on1 [Example 61, 6-((3-methoxy-4-((5-methylisoxazol-3-yl)methoxy)phenyl)amino)-3-morpholinoquinoxaline-5-carbonitrile] | < 100 | > 10000 | > 1000 | > 10000 |  | 300 to 1000 | > 1000 | > 10000 |  | < 100 |  |
| COc1cc(Nc2ccc3ncc(N4CCOCC4)nc3c2C#N)ccc1OCc1cnccn1 [Example 51, 6-((3-methoxy-4-(pyrazin-2-ylmethoxy)phenyl)amino)-3-morpholinoquinoxaline-5-carbonitrile] | < 100 | > 10000 | > 1000 | > 10000 | > 1000 | 300 to 1000 | > 1000 | > 10000 |  |  |  |
| COc1cc(Nc2ccc3ncc(N4CCOCC4)nc3c2C#N)ccc1OCc1ccc(C)[n+]([O-])c1 [Example 146, 6-((3-methoxy-4-((6-methyl-1-(λ^1-oxidaneyl)-1λ^4-pyridin-3-yl)methoxy)phenyl)amino)-3-morpholinoquinoxaline-5-carbonitrile] | 100 to 300 | 1000 to 10000 |  | > 10000 |  | 1000 to 10000 |  | 1000 to 10000 |  |  | 100 to 300 |
| COc1ccc(COc2ccc(Nc3ccc4ncc(OC)nc4c3)cc2OC)cc1 [Example 5, 3-methoxy-N-(3-methoxy-4-((4-methoxybenzyl)oxy)phenyl)quinoxalin-6-amine] |  | 1000 to 10000 | > 1000 | > 10000 |  | 1000 to 10000 | > 1000 | 1000 to 10000 | > 1000 | 100 to 300 |  |
| COc1cnc2ccc(Nc3ccc(OCc4ccc(OC)c(C#N)c4)c(OC)c3)c(C#N)c2n1 [Example 140, 6-((4-((3-cyano-4-methoxybenzyl)oxy)-3-methoxyphenyl)amino)-3-methoxyquinoxaline-5-carbonitrile] |  |  | > 1000 |  |  |  | > 1000 |  | > 1000 | 100 to 300 |  |
| COc1ccc(COc2ccc(Nc3ccc4ncc(-n5ccnc5)nc4c3C#N)cc2OC)cn1 [Example 70, 3-(1H-imidazol-1-yl)-6-((3-methoxy-4-((6-methoxypyridin-3-yl)methoxy)phenyl)amino)quinoxaline-5-carbonitrile] |  |  | > 1000 |  |  |  | > 1000 |  | > 1000 | < 100 |  |
| COc1ccc(COc2ccc(Nc3ccc4ncc(OC)nc4c3C#N)cc2OC)cc1 [Example 3, 3-methoxy-6-((3-methoxy-4-((4-methoxybenzyl)oxy)phenyl)amino)quinoxaline-5-carbonitrile] | 100 to 300 |  | > 1000 |  |  |  | > 1000 |  |  | 300 to 1000 |  |
